The record followed here is publication PMC10303271, “Synthesis and Receptor Binding Studies of α5 GABAAR Selective Novel Imidazodiazepines Targeted for Psychiatric and Cognitive Disorders” (Molecules, 2023).

Structures are written as SMILES. Like-named read-outs stand apart in the source and are kept apart here.

For one assay, the target named is T1, MOR (Homo sapiens, UniProt P35372).
T1 construct: purchased NIMH Psychoactive Drug Screening Program (PDSP)
Description: PDSP radioligand binding at MOR. The conditions noted are these: 1.5 h. The text has this:
Opioid receptors are a family of inhibitory G-coupled protein receptors where opioids act as the ligand. The kappa opioid receptors (KOR), µ and δ opioid receptors (MOR and DOR), and nociception opioid receptor (NOP) fall under the family of opioids receptors. It has been reported that oxadiazole imidazodiazepines can mediate analgesic and anti-inflammatory properties mediated also by the κ opioid receptor (KOR). The binding at KOR is usually silent. The affinities of the test compounds for KOR, DOR, and MOR were determined using radioligand binding assays at a screening concentration of 10,000 nM in collaboration with the National Institute of Mental Health’s Psychoactive Drug Screening Program (PDSP), as mentioned before. Concentration-dependent experiments were conducted to determine Ki values for the compounds that exceeded more than 50% radioligand displacement in primary binding assays.
(§1) The NIMH PDSP assay protocol book [https://kidbdev.med.unc.edu/databases/PDSP%20Protocols%20II%202013-03-28.pdf accessed on 23 April 2023]. describes the protocols for primary and secondary radio-ligand binding assays. These assays were carried out in a final volume of 125 µL per well in the appropriate binding buffer.
(§2) The binding of a ligand to a receptor, ion channel, or transporter was determined in the […] of 10 µM of the appropriate reference compound. […] Plates were incubated in the dark for 90 min at rt, and the reactions were stopped by vacuum filtration onto 0.3% polyethyleneimine (PEI) soaked 96-well filter mats using a 96-well Filtermateharvester. This was followed by three washes with cold PBS buffer. Radioactivity was then counted on a Microbeta counter. Nonlinear regression was used to analyze the data with N = 6 replicates.

The target of another assay is T2, Alpha1A (Homo sapiens, UniProt P35348).
T2 construct: purchased NIMH Psychoactive Drug Screening Program (PDSP)
T2 sequence (P35348 1-466): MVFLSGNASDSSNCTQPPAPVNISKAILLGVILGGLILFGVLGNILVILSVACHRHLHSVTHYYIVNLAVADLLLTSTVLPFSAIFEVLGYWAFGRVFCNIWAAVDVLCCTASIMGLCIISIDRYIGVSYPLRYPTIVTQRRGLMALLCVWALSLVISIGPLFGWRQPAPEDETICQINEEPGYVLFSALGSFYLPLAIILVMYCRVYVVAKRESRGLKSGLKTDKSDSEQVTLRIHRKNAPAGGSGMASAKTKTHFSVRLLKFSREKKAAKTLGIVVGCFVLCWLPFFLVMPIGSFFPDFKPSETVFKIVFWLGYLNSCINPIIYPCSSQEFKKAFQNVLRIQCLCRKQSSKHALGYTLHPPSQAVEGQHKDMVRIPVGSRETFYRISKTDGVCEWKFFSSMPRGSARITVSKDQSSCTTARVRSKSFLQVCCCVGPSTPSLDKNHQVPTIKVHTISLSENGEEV
Description: PDSP primary binding Alpha1A. The following applies: 1.5 h; primary binding, 10,000 nM; last figure of the line = mean of the 4 before it; read-out: Alpha1A, PDSP raw data, mean. Here is the method:
(§3) To determine if any off-target receptor-binding effects are present, all the novel ligands were sent to the National Institute of Mental Health (NIMH), Psychoactive Drug Screening Program (PDSP). The ligands were screened over a panel of 47 receptors, ion channels, and transporters to determine any other possible interactions with […]. The hERG-binding was also determined. […] No binding of the test compounds to calcium channels was observed. […] It is necessary to screen the compounds for hERG-binding during the early process of drug discovery. The unintentional binding of many drugs to hERG can cause blockade of hERG K+ channels in the heart, which can cause many side effects including cardiac arrhythmias and sudden death. […] All of the α5 imidazodiazepines were tested for hERG-binding.
as §1, §2

Another assay deals with T3, D4 (Homo sapiens, UniProt P21917).
T3 construct: purchased NIMH Psychoactive Drug Screening Program (PDSP)
T3 sequence (P21917 1-419): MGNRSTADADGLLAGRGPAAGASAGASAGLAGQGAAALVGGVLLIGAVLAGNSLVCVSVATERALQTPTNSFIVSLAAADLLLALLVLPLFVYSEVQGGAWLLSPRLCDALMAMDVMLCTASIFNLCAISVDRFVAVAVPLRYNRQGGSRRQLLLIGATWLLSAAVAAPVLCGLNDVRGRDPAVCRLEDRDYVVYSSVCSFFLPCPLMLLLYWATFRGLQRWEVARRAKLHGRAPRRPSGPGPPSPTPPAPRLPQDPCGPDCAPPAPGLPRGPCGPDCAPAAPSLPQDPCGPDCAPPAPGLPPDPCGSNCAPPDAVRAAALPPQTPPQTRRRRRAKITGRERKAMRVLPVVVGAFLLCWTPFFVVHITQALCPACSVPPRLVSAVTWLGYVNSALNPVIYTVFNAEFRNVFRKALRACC
The assay can be described thus: PDSP primary binding D4. The conditions noted are these: 1.5 h; primary binding, 10,000 nM; last figure of the line = mean of the 4 before it; read-out: D4, PDSP raw data, mean. Here is the method:
as §3, §1, §2

A further assay deals with Sigma 2. The assay can be described thus: PDSP primary binding Sigma 2. The conditions noted are these: primary binding, 10,000 nM; last figure of the line = mean of the 4 before it. The procedure: as §3, §1, §2
A further assay addresses T4, Alpha3Beta2 (Rattus norvegicus, UniProt P04757+P12390).
T4 construct: purchased NIMH Psychoactive Drug Screening Program (PDSP)
The assay can be described thus: PDSP primary binding Alpha3Beta2. The conditions noted are these: primary binding, 10,000 nM; last figure of the line = mean of the 4 before it; read-out: Alpha3Beta2, PDSP raw data, mean. Here is the method:
as §3, §1, §2

A further assay has as its target T5, Alpha4Beta2 (Rattus norvegicus, UniProt P09483+P12390).
T5 construct: purchased NIMH Psychoactive Drug Screening Program (PDSP)
The assay can be described thus: PDSP primary binding Alpha4Beta2. The following applies: primary binding, 10,000 nM; last figure of the line = mean of the 4 before it; read-out: Alpha4Beta2, PDSP raw data, mean. The procedure:
as §3, §1, §2

The target in another assay is T6, H1 (Homo sapiens, UniProt P35367).
T6 construct: purchased NIMH Psychoactive Drug Screening Program (PDSP)
Description: PDSP primary binding H1. The following applies: primary binding, 10,000 nM; last figure of the line = mean of the 4 before it; read-out: H1, PDSP raw data, mean. Here is the method: as §3, §1, §2

The subject of the next assay is NMDA. Description: PDSP primary binding NMDA. The following applies: primary binding, 10,000 nM; last figure of the line = mean of the 4 before it. Here is the method:
as §3, §1, §2

The target of another assay is T7, Alpha2Beta2 (Rattus norvegicus, UniProt P12389+P12390).
T7 construct: purchased NIMH Psychoactive Drug Screening Program (PDSP)
Description: PDSP primary binding Alpha2Beta2. The following applies: primary binding, 10,000 nM; last figure of the line = mean of the 4 before it; read-out: Alpha2Beta2, PDSP raw data, mean. Here is the method: as §3, §1, §2

In a further assay the target is T8, H4 (Homo sapiens, UniProt Q9H3N8).
T8 construct: purchased NIMH Psychoactive Drug Screening Program (PDSP)
Description: PDSP primary binding H4. The conditions noted are these: primary binding, 10,000 nM; last figure of the line = mean of the 4 before it; read-out: H4, PDSP raw data, mean. The procedure: as §3, §1, §2

Another assay has as its target T9, HCA2 (Homo sapiens, UniProt Q8TDS4).
T9 construct: purchased NIMH Psychoactive Drug Screening Program (PDSP)
The assay can be described thus: PDSP primary binding HCA2. The conditions noted are these: primary binding, 10,000 nM; last figure of the line = mean of the 4 before it; read-out: HCA2, PDSP raw data, mean. Here is the method:
as §3, §1, §2

[1] abbreviates: at 10,000 nM, N = 5, [3H]-DAMGO 1.20 nM, read-out: Primary Binding %MOR.
[2] abbreviates: primary binding, 10,000 nM, last figure of the line = mean of the 4 before it, read-out: MOR, PDSP raw data, mean.

T4 sequence (P04757 26-499): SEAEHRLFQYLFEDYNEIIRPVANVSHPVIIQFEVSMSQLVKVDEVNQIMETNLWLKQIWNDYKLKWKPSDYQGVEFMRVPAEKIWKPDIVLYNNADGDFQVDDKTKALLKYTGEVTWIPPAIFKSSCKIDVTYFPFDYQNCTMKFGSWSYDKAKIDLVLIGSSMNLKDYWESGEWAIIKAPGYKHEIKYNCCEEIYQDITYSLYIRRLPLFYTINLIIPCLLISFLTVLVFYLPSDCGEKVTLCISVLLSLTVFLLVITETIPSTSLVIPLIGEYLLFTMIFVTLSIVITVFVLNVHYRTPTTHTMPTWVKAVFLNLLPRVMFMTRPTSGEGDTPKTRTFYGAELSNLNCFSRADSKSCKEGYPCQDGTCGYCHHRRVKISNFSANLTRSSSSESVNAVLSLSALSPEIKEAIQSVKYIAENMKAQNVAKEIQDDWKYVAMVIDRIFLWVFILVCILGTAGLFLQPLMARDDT
T4 sequence (P12390 25-500): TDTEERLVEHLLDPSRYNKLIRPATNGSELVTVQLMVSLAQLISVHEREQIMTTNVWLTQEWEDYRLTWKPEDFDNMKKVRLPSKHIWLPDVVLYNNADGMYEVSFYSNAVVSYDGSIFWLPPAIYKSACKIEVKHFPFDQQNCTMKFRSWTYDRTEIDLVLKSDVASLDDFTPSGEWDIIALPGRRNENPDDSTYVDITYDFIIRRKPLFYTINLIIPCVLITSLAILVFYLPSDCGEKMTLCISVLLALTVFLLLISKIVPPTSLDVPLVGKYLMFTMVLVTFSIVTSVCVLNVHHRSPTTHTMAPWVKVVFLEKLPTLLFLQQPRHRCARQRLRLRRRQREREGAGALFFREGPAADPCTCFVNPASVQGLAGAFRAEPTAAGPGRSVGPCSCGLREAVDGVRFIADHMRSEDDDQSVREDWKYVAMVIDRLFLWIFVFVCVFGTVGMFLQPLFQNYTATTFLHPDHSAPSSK
T5 sequence (P09483 31-630): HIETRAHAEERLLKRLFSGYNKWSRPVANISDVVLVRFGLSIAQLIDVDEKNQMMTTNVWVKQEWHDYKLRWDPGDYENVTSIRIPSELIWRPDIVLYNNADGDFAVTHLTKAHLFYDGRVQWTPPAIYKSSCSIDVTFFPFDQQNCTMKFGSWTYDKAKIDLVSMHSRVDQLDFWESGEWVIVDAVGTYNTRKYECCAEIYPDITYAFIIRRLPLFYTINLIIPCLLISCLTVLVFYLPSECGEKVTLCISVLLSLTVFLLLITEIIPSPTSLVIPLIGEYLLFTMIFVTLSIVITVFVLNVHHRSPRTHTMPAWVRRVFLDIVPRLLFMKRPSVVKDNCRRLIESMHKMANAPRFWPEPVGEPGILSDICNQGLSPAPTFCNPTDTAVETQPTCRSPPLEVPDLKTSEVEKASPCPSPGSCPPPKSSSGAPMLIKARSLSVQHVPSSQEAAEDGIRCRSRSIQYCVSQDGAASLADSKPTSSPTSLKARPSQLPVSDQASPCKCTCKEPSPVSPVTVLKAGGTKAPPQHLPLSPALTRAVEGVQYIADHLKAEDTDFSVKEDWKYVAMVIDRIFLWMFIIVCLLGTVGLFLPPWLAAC
T5 sequence (P12390 25-500): as the sequence (P12390 25-500) above
T7 sequence (P12389 28-511): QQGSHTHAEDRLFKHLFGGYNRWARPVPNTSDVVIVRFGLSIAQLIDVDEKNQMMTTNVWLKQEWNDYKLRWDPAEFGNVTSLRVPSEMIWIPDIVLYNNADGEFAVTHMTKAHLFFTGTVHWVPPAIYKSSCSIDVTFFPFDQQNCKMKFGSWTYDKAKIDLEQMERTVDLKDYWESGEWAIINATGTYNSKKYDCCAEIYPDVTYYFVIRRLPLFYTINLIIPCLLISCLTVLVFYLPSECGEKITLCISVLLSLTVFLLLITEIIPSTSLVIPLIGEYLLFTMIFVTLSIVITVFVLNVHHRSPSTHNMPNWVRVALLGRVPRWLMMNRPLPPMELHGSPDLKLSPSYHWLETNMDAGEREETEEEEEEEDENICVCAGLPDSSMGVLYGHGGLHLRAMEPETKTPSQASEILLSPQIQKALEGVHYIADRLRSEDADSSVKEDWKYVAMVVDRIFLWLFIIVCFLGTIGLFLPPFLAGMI
T7 sequence (P12390 25-500): as the sequence (P12390 25-500) above
T6 sequence (P35367 whole entry): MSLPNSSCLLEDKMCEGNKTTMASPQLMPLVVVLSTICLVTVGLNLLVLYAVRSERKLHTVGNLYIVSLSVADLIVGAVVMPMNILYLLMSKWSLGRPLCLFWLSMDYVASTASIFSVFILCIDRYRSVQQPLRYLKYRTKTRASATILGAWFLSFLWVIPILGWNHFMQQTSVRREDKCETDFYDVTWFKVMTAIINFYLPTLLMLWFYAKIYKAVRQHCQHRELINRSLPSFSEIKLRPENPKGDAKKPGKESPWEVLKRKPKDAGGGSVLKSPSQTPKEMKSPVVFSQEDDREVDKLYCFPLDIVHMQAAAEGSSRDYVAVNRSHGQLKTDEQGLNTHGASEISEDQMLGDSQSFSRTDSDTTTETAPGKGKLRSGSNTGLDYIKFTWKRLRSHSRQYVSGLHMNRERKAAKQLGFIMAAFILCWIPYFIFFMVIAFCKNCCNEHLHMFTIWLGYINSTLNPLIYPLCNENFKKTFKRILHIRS
T8 sequence (Q9H3N8 whole entry): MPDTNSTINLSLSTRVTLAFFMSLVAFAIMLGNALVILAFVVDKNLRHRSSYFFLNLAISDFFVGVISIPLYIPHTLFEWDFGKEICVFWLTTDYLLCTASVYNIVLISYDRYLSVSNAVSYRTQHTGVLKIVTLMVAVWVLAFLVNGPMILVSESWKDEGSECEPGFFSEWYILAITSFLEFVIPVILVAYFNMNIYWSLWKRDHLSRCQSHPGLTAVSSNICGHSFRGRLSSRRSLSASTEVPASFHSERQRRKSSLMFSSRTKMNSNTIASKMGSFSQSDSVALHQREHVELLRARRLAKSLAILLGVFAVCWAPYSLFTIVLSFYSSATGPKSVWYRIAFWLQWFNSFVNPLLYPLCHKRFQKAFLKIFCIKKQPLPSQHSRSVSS
T9 sequence (Q8TDS4 whole entry): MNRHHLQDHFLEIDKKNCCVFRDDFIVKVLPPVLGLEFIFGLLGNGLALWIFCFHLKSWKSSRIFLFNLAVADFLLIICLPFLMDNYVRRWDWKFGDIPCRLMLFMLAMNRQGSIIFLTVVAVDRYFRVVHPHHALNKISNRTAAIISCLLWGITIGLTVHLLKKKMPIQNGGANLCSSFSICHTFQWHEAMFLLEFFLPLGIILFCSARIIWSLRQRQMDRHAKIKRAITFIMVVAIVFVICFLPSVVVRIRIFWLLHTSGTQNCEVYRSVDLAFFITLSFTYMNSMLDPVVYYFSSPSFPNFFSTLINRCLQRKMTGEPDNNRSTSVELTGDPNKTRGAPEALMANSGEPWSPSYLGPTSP
T1 sequence (P35372 whole entry): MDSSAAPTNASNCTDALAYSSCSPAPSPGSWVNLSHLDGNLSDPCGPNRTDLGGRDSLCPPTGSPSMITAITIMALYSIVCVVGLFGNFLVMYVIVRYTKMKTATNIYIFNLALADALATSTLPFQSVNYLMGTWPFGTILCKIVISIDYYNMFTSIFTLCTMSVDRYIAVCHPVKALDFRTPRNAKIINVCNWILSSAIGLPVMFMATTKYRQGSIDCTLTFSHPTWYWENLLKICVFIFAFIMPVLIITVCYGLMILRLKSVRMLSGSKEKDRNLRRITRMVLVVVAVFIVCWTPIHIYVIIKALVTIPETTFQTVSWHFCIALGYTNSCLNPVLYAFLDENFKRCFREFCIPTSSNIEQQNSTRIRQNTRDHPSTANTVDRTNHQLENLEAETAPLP

Consider `CCc1noc(-c2ncn3c2[C@@H](C)N=C(c2ccccc2F)c2cc(Cl)ccc2-3)n1` [Compound 36, (R)-5-(8-Chloro-6-(2′-fluorophenyl)-4-methyl-4H-benzo[f]imidazo[1,5-a][1,4]diazepin-3-yl)-3-ethyl-1,2,4-oxadiazole], for which the inhibition at 10 µM on MOR (setting [1]) was 19.2 ± 5.47%; on MOR (setting [2]) it was 19.2%; at Alpha1A it was -0.34%; at D4, -4.5%; at Alpha3Beta2 it was 6.01%; at Alpha4Beta2, -1.38%. The inhibition at 10 µM on H1 is 7.7%; on Alpha2Beta2, -6.7%; on H4 it was 28.9%; on HCA2, -29.3%. Besides, the “Sigma 2, PDSP raw data, mean” value in the assay on Sigma 2 turned out to be 81.41%. Besides, the “NMDA, PDSP raw data, mean” value with NMDA worked out at 55.6%.

In the case of `CC(C)c1noc(-c2ncn3c2[C@@H](C)N=C(c2ccccc2F)c2cc(Cl)ccc2-3)n1` [Compound 37, (R)-5-(8-Chloro-6-(2′-fluorophenyl)-4-methyl-4H-benzo[f]imidazo[1,5-a][1,4]diazepin-3-yl)-3-isopropyl-1,2,4-oxadiazole], the inhibition at 10 µM on MOR (setting [1]) was 48.6 ± 4.17%; on MOR (setting [2]) it was 48.6%; at Alpha1A it was -8.38%; at D4, -10.1%; on Alpha3Beta2, 5.77%; on Alpha4Beta2 it was 6.16%. Further, the inhibition at 10 µM at H1 stood at 59%; on Alpha2Beta2, 3.29%; on H4, 6.39%; on HCA2, 35.2%. Moreover, the “Sigma 2, PDSP raw data, mean” value in the assay with Sigma 2 is recorded as 76.17%. Also, in the assay with NMDA, the “NMDA, PDSP raw data, mean” value is 54.13%.

`C[C@H]1N=C(c2ccccc2F)c2cc(Cl)ccc2-n2cnc(-c3nc(C4CC4)no3)c21` [Compound 38, (R)-5-(8-Chloro-6-(2′-fluorophenyl)-4-methyl-4H-benzo[f]imidazo[1,5-a][1,4]diazepin-3-yl)-3-cyclopropyl-1,2,4-oxadiazole]: the inhibition at 10 µM at MOR (setting [1]) is 30.2 ± 6.46%; at MOR (setting [2]), 30.2%; at Alpha1A it was 1.65%; at D4, -3.44%; at Alpha3Beta2, 6.96%; on Alpha4Beta2, 1.67%. The inhibition at 10 µM on H1 is 58.4%; at Alpha2Beta2, 1.44%; at H4, 5.24%; on HCA2, -1.1%. Besides, in the assay on Sigma 2, the “Sigma 2, PDSP raw data, mean” value came to 80.86%. In addition, the “NMDA, PDSP raw data, mean” value in the assay on NMDA is given as 65.22%.

For `CCc1noc(-c2ncn3c2CN=C(c2ccccc2F)c2cc(C4CC4)ccc2-3)n1` [Compound 44, 5-(8-Cyclopropyl-6-(2′-fluorophenyl)-4H-benzo[f]imidazo[1,5-a][1,4]diazepin-3-yl)-3-ethyl-1,2,4-oxadiazole], the inhibition at 10 µM is 26.4 ± 6.01% at MOR (setting [1]); 26.4% at MOR (setting [2]); 21.4% on Alpha1A; -4.07% at D4; -0.02% at Alpha3Beta2; -1.95% at Alpha4Beta2. Further, the inhibition at 10 µM on H1 is 16.3%; on Alpha2Beta2 it was -6.67%; at H4 it was 20.6%; at HCA2, -11.9%. Besides, the “Sigma 2, PDSP raw data, mean” value in the assay with Sigma 2 stood at 74.98%. Also, in the assay on NMDA, the “NMDA, PDSP raw data, mean” value is listed as 20.03%.

For `CCc1noc(-c2ncn3c2[C@@H](C)N=C(c2ccccc2F)c2cc(C4CC4)ccc2-3)n1` [Compound 46, (R)-5-(8-Cyclopropyl-6-(2′-fluorophenyl)-4-methyl-4H-benzo[f]imidazo[1,5-a][1,4]diazepin-3-yl)-3-ethyl-1,2,4-oxadiazole], the inhibition at 10 µM at MOR (setting [2]) came to 25.1%; at Alpha1A, 31.8%; at D4 it was 10.6%; on Alpha3Beta2, 5.55%; on Alpha4Beta2, 4.59%; at H1 it was 33.7%. The values for the inhibition at 10 µM on Alpha2Beta2, on H4 and on HCA2 were -2.72%, 21.7% and -17.2%, respectively. For the same compound, in the assay with Sigma 2, the “Sigma 2, PDSP raw data, mean” value was 89.78%. Besides, the “NMDA, PDSP raw data, mean” value in the assay on NMDA was found to be 66.04%.
